PMC10065799, “High-throughput profiling of sequence recognition by tyrosine kinases and SH2 domains using bacterial peptide display” (eLife, 2023)

Assays:
c-Abl kinase domain [1] = biological target: T1, c-Abl kinase domain (Mus musculus, UniProt P00520); assay: ADP-Quest continuous fluorimetric kinase assay (Michaelis-Menten parameters and initial rates); type: biochemical; conditions: c-Abl kinase domain 10 nM, 100 μM ATP, 37 °C, three to five replicates, error = standard error of global Michaelis-Menten fit
T1 sequence (P00520 242-493 limits assumed): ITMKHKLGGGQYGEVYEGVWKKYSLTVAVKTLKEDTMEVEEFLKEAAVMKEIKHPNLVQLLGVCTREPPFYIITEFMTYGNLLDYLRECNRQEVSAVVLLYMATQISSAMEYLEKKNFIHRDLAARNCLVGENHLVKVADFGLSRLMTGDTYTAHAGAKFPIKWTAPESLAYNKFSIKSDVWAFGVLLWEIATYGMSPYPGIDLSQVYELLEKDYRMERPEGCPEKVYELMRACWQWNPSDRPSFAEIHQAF
Excerpt: A fluorescence-based assay from Eurofins (ADP Quest) was used to measure the Michaelis-Menten kinetic parameters for phosphorylation of the consensus peptides by purified tyrosine kinase domains. In this assay, ADP production as a result of kinase activity is coupled to the production of resorufin, a fluorophore that emits signal at 590 nm. For all experiments, the assay reactions were set up as described in the provided assay kit protocol, in a 384 well plate format. The peptide solutions were serially diluted in 100 mM Tris, pH 8.0, and the kinases were diluted to 50 nM in buffer (10 mM HEPES, 100 mM NaCl, 1 mM TCEP, 5 mM MgCl2, 10% (v/v) glycerol). The final reaction mixtures contained 10 nM of kinase with 100 μM of ATP. […] Phosphorylation reaction progress was monitored by measuring fluorescence at excitation 530 nm and emission 590 nm every 2 min at 37 °C on a plate reader (BioTek Synergy Neo 2). The fluorescence units (RFU) were converted to μM ADP by comparison to a standard curve, and the initial rates were extracted from the linear regime of the reaction progress curves. Initial rates were also measured for samples containing each kinase but lacking a peptide substrate, to account for background ATP hydrolysis. This background rate was subtracted from the rates measured in the presence of peptide. […]

c-Src kinase domain = c-Src kinase domain (Homo sapiens, UniProt P12931); assay: pTyr-Var library bacterial peptide display kinase screen (enrichment scores); type: biochemical;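 for c-Src hit?: Hit requires p below 0.05 and at least twofold variant vs reference change plus filters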
Fyn kinase domain [2] = assay: as above; type: biochemical, human
Hck kinase domain = assay: as above; type: biochemical, human
c-Abl kinase domain [3] = biological target: T1, c-Abl kinase domain; assay: as above; type: biochemical
Jak2 = assay: as above; type: biochemical, human
AncSZ kinase domain = assay: as above; type: biochemical;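 for AncSZ hit?: Hit requires p below 0.05 and at least twofold variant vs reference change plus filters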
Fer kinase domain = assay: as above; type: biochemical, mouse
Fes = assay: as above; type: biochemical
FGFR1 kinase domain [4] = assay: as above; type: biochemical, human
FGFR3 kinase domain = assay: as above; type: biochemical, human
EPHB1 kinase domain = assay: as above; type: biochemical, human
EPHB2 kinase domain = assay: as above; type: biochemical, human
MERTK kinase domain = assay: as above; type: biochemical, human
c-Src SH2 domain = c-Src SH2 domain (Homo sapiens, UniProt P12931); assay: pTyr-Var library SH2 domain screen with SH2-dynabeads (enrichment scores); conditions: sheet c-Src
SHP2 C-SH2 domain = assay: as above
Grb2 SH2 domain = assay: as above
FGFR1 kinase domain [5] = assay: LC-MS assay of intact SHP2 protein phosphorylation; type: biochemical, human; conditions: SHP2 10 μM, kinase 1 μM, 1 hr, 37 °C, 2 to 3 measurements
Experimental: (§1) The same protocol used to express and purify SH2 domains, excluding co-expression of BirA and addition of biotin, was applied to the expression and purification of the SHP2 variants.
(§2) To pre-activate the kinases, 1 μM of each purified kinase domain was preincubated at 37 °C for 30 min in the same buffer conditions used in the kinase domain peptide display screen, with 1 mM ATP. The reaction of the kinase with SHP2 was initiated with the addition of 10 μM SHP2, and the mixture was incubated in 37 °C for 1 hr. To terminate the reaction, the mixture was quenched with 200 mM EDTA. The reaction mixture was diluted 3:2 in water and injected onto a BEH C8 column (Waters) on a UPLC-MS system (Xevo QToF, Waters). Reverse-phase liquid chromatography was carried out at 0.3 mL/min with solvents A (H2O, 0.1% (v/v) formic acid) and B (acetonitrile, 0.1% (v/v) formic acid). Proteins were eluted over a gradient of 5–95% B for 8.5 min. The protein peak on the chromatogram was deconvoluted using the MaxEnt1 algorithm from 32,000–65,000 Da with a resolution of 1 Da/channel over 30 iterations. Peaks were chosen according to the theoretical MW of the protein within a range of 5 Da, and integrated for the signal intensity.

Fyn kinase domain [6] = assay: LC-MS assay of intact SHP2 protein phosphorylation; type: biochemical, human; conditions: SHP2 10 μM, kinase 1 μM, 1 hr, 37 °C, 2 to 3 measurements
Experimental: as §1, §2

[7] = mean of log2 of enrichment over R1-R4
[8] = pTyr-Var library, enrichment score, replicate 1
[9] = pTyr-Var library, enrichment score, replicate 3
[10] = pTyr-Var library, enrichment score, replicate 4
[11] = variant versus reference peptide
[12] = variant versus reference peptide, significant hit TRUE/FALSE
[13] = mean of log2(variant) minus mean of log2(reference)
[14] = mean of log2 enrichment of variant peptide, n = 5
[15] = mean of log2 enrichment of variant peptide, n = 4
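Throughout, for Fyn hit?: Hit requires p below 0.05 and at least twofold variant vs reference change plus filters.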
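Throughout, for c-Abl hit?: Hit requires p below 0.05 and at least twofold variant vs reference change plus filters.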

Molecule: Ac-GAPEVIYATPGAKKKG-NH2 [AblTide (2014), previously reported c-Abl consensus substrate]
- Km (c-Abl kinase domain [1]): 35 ± 8 µM
- kcat (c-Abl kinase domain [1]): 2.5±0.2 s^–1

Molecule: DRVALYVAREG [AACS_Y117_I118V]
- c-Src mean of log2(enrichment) (c-Src kinase domain; [7]): -1.464
- c-Src enrich. R1 (c-Src kinase domain; [8]): 0.3697
- c-Src enrich. R3 (c-Src kinase domain; [9]): 0.2802
- c-Src enrich. R4 (c-Src kinase domain; [10]): 0.4218
- c-Src difference (mean log2 variant - mean log2 reference) (c-Src kinase domain; [11]): -0.2397
- c-Src hit? (c-Src kinase domain; [12]): FALSE
- Fyn mean of log2(enrichment) (Fyn kinase domain [2]; [7]): -1.274
- Fyn enrich. R1 (Fyn kinase domain [2]; [8]): 0.7923
- Fyn enrich. R3 (Fyn kinase domain [2]; [9]): 0.2683
- Fyn enrich. R4 (Fyn kinase domain [2]; [10]): 0.2456
- Fyn difference (mean log2 variant - mean log2 reference) (Fyn kinase domain [2]; [11]): 0.04124
- Fyn hit? (Fyn kinase domain [2]; [12]): FALSE
- Hck mean of log2(enrichment) (Hck kinase domain; mean of log2(variant) / mean of log2(reference), R1-R4): 0.6801
- Hck enrich. R1 (Hck kinase domain; [8]): 1.248
- Hck enrich. R3 (Hck kinase domain; [9]): 0.3794
- Hck enrich. R4 (Hck kinase domain; [10]): 0.204
- Hck difference (variant - reference) (Hck kinase domain; [11]): 0.1112
- Hck hit? (Hck kinase domain; [12]): FALSE
- c-Abl mean of log2(enrichment) (c-Abl kinase domain [3]; [7]): -0.7858
- c-Abl enrich. R1 (c-Abl kinase domain [3]; [8]): 0.555
- c-Abl enrich. R3 (c-Abl kinase domain [3]; [9]): 0.7635
- c-Abl enrich. R4 (c-Abl kinase domain [3]; [10]): 0.4657
- c-Abl hit? (c-Abl kinase domain [3]; [12]): FALSE
- Jak2 mean of log2(enrichment) (Jak2; mean of log2 of enrichment over R1-R3): -0.2901
- Jak2 enrich. R1 (Jak2; [8]): 0.73
- Jak2 enrich. R3 (Jak2; [9]): 0.9423
- Jak2 difference (mean log2 variant - mean log2 reference) (Jak2; [11]): -0.3116
- Jak2 hit? (Jak2; [12]): FALSE
- AncSZ mean of log2(enrichment) (AncSZ kinase domain; mean of log2 of enrichment over R1-R5): -0.4041
- AncSZ enrich. R1 (AncSZ kinase domain; [8]): 1.153
- AncSZ enrich. R3 (AncSZ kinase domain; [9]): 0.7411
- AncSZ enrich. R4 (AncSZ kinase domain; [10]): 0.5554
- AncSZ enrich. R5 (AncSZ kinase domain; pTyr-Var library, enrichment score, replicate 5): 0.4897
- AncSZ difference (mean log2 variant - mean log2 reference) (AncSZ kinase domain; [11]): -0.326
- AncSZ hit? (AncSZ kinase domain; [12]): FALSE
- Fer mean of log2(enrichment) (Fer kinase domain; [7]): -1.031
- Fer enrich. R1 (Fer kinase domain; [8]): 0.6342
- Fer enrich. R3 (Fer kinase domain; [9]): 0.3786
- Fer enrich. R4 (Fer kinase domain; [10]): 0.4545
- Fer difference (mean log2 variant - mean log2 reference) (Fer kinase domain; [11]): 0.05113
- Fer hit? (Fer kinase domain; [12]): FALSE
- Fes mean of log2(enrichment) (Fes; mean of log2 of enrichment over R1-R6): -0.04177
- Fes difference (mean log2 variant - mean log2 reference) (Fes; [11]): -0.2234
- difference (FGFR1 kinase domain [4]; [13]): -0.08555
- mean of log2(variant) (FGFR1 kinase domain [4]; [14]): -1.047
- difference (FGFR3 kinase domain; [13]): -0.06288
- mean of log2(variant) (FGFR3 kinase domain; [14]): -0.601
- difference (EPHB1 kinase domain; [13]): -0.2676
- mean of log2(variant) (EPHB1 kinase domain; [15]): -0.8888
- difference (EPHB2 kinase domain; [13]): 0.3459
- mean of log2(variant) (EPHB2 kinase domain; [15]): -0.6512
- difference (MERTK kinase domain; [13]): -0.4526
- mean of log2(variant) (MERTK kinase domain; [15]): -1.84
- difference (c-Src SH2 domain; [13]): -0.4301
- mean of log2(variant) (c-Src SH2 domain; mean of log2 enrichment of variant peptide, R1-R3): -1.56
- difference (SHP2 C-SH2 domain; SHP2-C SH2, mean of log2(variant) minus mean of log2(reference)): -0.5364
- mean of log2(variant) (SHP2 C-SH2 domain; SHP2-C SH2, mean of log2 enrichment of variant, R1-R3): -0.6877
- hit? (SHP2 C-SH2 domain; SHP2-C SH2, variant versus reference significant hit call): FALSE
- difference (Grb2 SH2 domain; Grb2 SH2, mean of log2(variant) minus mean of log2(reference)): -0.1132
- mean of log2(variant) (Grb2 SH2 domain; Grb2 SH2, mean of log2 enrichment of variant, R1-R3): -0.29
- hit? (Grb2 SH2 domain; Grb2 SH2, variant versus reference significant hit call): FALSE

B1: SHP2 D61V: human full-length SHP2 (residues 1–526; C459E, D61V) (protein, UniProt Q06124 2-593, looked up, variant C459E D61V)
Tyrosine-protein phosphatase …: TSRRWFHPNITGVEAENLLLTRGVDGSFLARPSKSNPGDFTLSVRRNGAVTHIKIQNTGVYYDLYGGEKFATLAELVQYYMEHHGQLKEKNGDVIELKYPLNCADPTSERWFHGHLSGKEAEKLLTEKGKHGSFLVRESQSHPGDFVLSVRTGDDKGESNDGKSKVTHVMIRCQELKYDVGGGERFDSLTDLVEHYKKNPMVETLGTVLQLKQPLNTTRINAAEIESRVRELSKLAETTDKVKQGFWEEFETLQQQECKLLYSRKEGQRQENKNKNRYKNILPFDHTRVVLHDGDPNEPVSDYINANIIMPEFETKCNNSKPKKSYIATQGCLQNTVNDFWRMVFQENSRVIVMTTKEVERGKSKCVKYWPDEYALKEYGVMRVRNVKESAAHDYTLRELKLSKVGQGNTERTVWQYHFRTWPDHGVPSDPGGVLDFLEEVHHKQESIMDAGPVVVHESAGIGRTGTFIVIDILIDIIREKGVDCDIDVPKTIQMVRSQRSGMVQTEAQYRFIYMAVQHYIETLQRRIEEEQKSKRKGHEYTNIKYSLADQTSGDQSPLPPCTPTPPCAEMREDSARVYENVGLMQQQKSFR
- phosphorylation of intact SHP2 by FGFR1 (FGFR1 kinase domain [5]): dramatically enhanced phosphorylation
- phosphorylation of intact SHP2 by Fyn (Fyn kinase domain [6]): dramatically enhanced phosphorylation
